According to ChEMBL document CHEMBL1129258, “Synthesis and structure-activity relationships of 2-pyridones: a novel series of potent DNA gyrase inhibitors as antibacterial agents” (J Med Chem, 1996):
Values after ≈ are worked out from the molar mass of the structure shown.

Experiments:
[1] = molecular target: T1, DNA gyrase (Escherichia coli) (UniProt P0AES6+P0AES4); assay: In vitro antibacterial activity against gram-positive organism Streptococcus bovis A-5169; assay type: functional; details: Streptococcus equinus
[2] = molecular target: T1, DNA gyrase (Escherichia coli); assay: In vitro antibacterial activity against gram-negative organism […] ATCC 13048; assay type: functional; details: Enterobacter aerogenes
[3] = molecular target: T1, DNA gyrase (Escherichia coli); assay: In vitro antibacterial activity against gram-positive organism Enterococcus faecium ATCC 8043; assay type: functional
[4] = In vitro antibacterial activity against gram-negative organism Pseudomonas aeruginosa 5007; assay type: functional; details: Pseudomonas aeruginosa; read-out: MIC
[5] = molecular target: T2, DNA gyrase (Staphylococcus aureus) (UniProt P0A0K8+P20831); assay: In vitro antibacterial activity against gram-positive organism Staphylococcus aureus NCTC-10649M; assay type: functional
[6] = molecular target: T2, DNA gyrase (Staphylococcus aureus); assay: In vivo efficacy against Staphylococcus aureus NCTC-10649M after oral administration; assay type: functional, organism-based
Streptococcus pneumoniae [7] = assay: (§1) In vivo efficacy against Strep. administration; assay type: functional
Streptococcus pneumoniae [8] = assay: as §1; assay type: functional; remark: listed apart in the source
[9] = In vitro antibacterial activity against gram-negative organism Pseudomonas aeruginosa DPHD-2862; assay type: functional
[10] = molecular target: T1, DNA gyrase (Escherichia coli); assay: In vitro antibacterial against gram-negative organism Escherichia coli JUHL; assay type: functional; details: Escherichia coli K-12
[11] = molecular target: T2, DNA gyrase (Staphylococcus aureus); assay: In vitro antibacterial activity against gram-positive organism Staphylococcus aureus ATCC 6538p; assay type: functional
[12] = molecular target: T2, DNA gyrase (Staphylococcus aureus); assay: In vivo efficacy against Staphylococcus aureus NCTC-10649M after subcutaneous administration; assay type: functional, organism-based
[13] = molecular target: T1, DNA gyrase (Escherichia coli); assay: In vitro antibacterial activity against gram-negative organism Klebsiella pneumoniae ATCC 8045; assay type: functional
[14] = molecular target: T1, DNA gyrase (Escherichia coli); assay: In vitro antibacterial activity against gram-negative organism Prov. stuartii CMX-640; assay type: functional; details: Providencia stuartii
[15] = molecular target: T2, DNA gyrase (Staphylococcus aureus); assay: In vitro antibacterial activity against gram-positive organism Staphylococcus aureus 1775; assay type: functional
Enterococcus faecalis = assay: Inhibitory activity against enterococcus faecalis Van B; assay type: functional
Enterococcus faecium = assay: Inhibitory activity against enterococcus faecium Van A; assay type: functional
Streptococcus pyogenes = assay: In vitro antibacterial activity against gram-positive organism Streptococcus pyogenes EES61; assay type: functional
[16] = molecular target: T1, DNA gyrase (Escherichia coli); details: Escherichia coli K-12
Description: Concentration which causes 50% of the gyrase (Escherichia coli H560)-mediated maximal DNA cleavage.

Pseudomonas aeruginosa = assay: In vivo efficacy against Pseudomonas aeruginosa 5007 following p.o. administration.
in vivo [17] = details: rat, plasma, po, 5 mg/kg
in vivo [18] = details: rat, po, 5 mg/kg
Description: Oral bioavailability in rat (dose 5 mg/kg)

[19] = Maximum plasma concentration in rats after an oral dose of 5 mg/kg; details: rat
[20] = molecular target: T1, DNA gyrase (Escherichia coli); assay: In vivo efficacy against Escherichia coli JUHL after oral administration; assay type: functional, organism-based; details: Escherichia coli K-12
[21] = molecular target: T1, DNA gyrase (Escherichia coli); assay: In vivo efficacy against Escherichia coli JUHL by subcutaneous administration; assay type: functional, organism-based; details: Escherichia coli K-12
[22] = In vivo efficacy against Pseudomonas aeruginosa 5007 after subcutaneous administration; assay type: functional; details: Pseudomonas aeruginosa, sc; read-out: ED50
Streptococcus pneumoniae [23] = assay: In vivo efficacy against Strep. administered; assay type: functional
[24] = Pseudomonas aeruginosa, read-out: MIC
[25] = Streptococcus pyogenes, read-out: MIC
[26] = Streptococcus pneumoniae, read-out: ED50

SMILES | MIC [1] [µg/mL] | MIC [2] [µg/mL] | MIC [3] [µg/mL] | MIC [4] [µg/mL] | MIC [5] [µg/mL] | ED50 [6] [mg/kg] | MIC [9, 24] [µg/mL] | MIC [10] [µg/mL] | MIC [11] [µg/mL] | ED50 [12] [mg/kg] | MIC [13] [µg/mL] | MIC [14] [µg/mL] | MIC [15] [µg/mL] | MIC (Enterococcus faecalis) [µg/mL] | MIC (Enterococcus faecium) [µg/mL] | MIC (Streptococcus pyogenes; [25]) [µg/mL] | ED50 (Streptococcus pneumoniae [7]) [mg/kg] | ED50 (Streptococcus pneumoniae [8]) [mg/kg] | CC50 [16] [µg/mL] | ED50 [22] [mg/kg] | other results
Cl.O=C(O)c1cn(C2CC2)c2cc(N3CCNCC3)c(F)cc2c1=O [CIPROFLOXACIN HYDROCHLORIDE] |  |  |  |  | 0.39 |  |  |  | 0.2 |  |  |  | > 100 | 1 | 4 |  |  |  |  |  | 
Cc1c(N2C[C@@H]3CCCN[C@@H]3C2)c(F)cn2c(=O)c(C(=O)O)cc(C3CC3)c12 (stereo in doubt; 45n) |  |  |  |  |  |  |  |  |  |  |  |  |  | 0.06 (≈ 0.156 µM) | 0.5 (≈ 1.3 µM) |  | 4.4 | 12.5 |  |  | MIC (Streptococcus pyogenes): 0.01 µg/mL (≈ 0.0259 µM); MIC [9]: 3.1 µg/mL (≈ 8.04 µM)
Cc1c(N2CCC(n3cccc3)C2)c(F)cn2c(=O)c(C(=O)O)cc(C3CC3)c12 (stereo not given) | 0.2 (≈ 0.506 µM) | 0.39 (≈ 0.986 µM) | 0.1 (≈ 0.253 µM) | 1.56 (≈ 3.95 µM) | 0.01 (≈ 0.0253 µM) |  | 25 (≈ 63.2 µM) | 0.1 (≈ 0.253 µM) | 0.02 (≈ 0.0506 µM) |  | 0.05 (≈ 0.126 µM) | 1.56 (≈ 3.95 µM) | 0.39 (≈ 0.986 µM) | 0.03 (≈ 0.0759 µM) | 0.5 (≈ 1.26 µM) | 0.1 (≈ 0.253 µM) |  |  | 0.04 (≈ 0.101 µM) |  | 
Cc1c(N2C[C@@H](C)N[C@@H](C)C2)c(F)cn2c(=O)c(C(=O)O)cc(C3CC3)c12 | 0.78 (≈ 2.09 µM) | 0.1 (≈ 0.268 µM) | 0.39 (≈ 1.04 µM) | 1.56 (≈ 4.18 µM) | 0.1 (≈ 0.268 µM) | 4.8 | 12.5 (≈ 33.5 µM) | 0.02 (≈ 0.0536 µM) | 0.1 (≈ 0.268 µM) | 4.4 | 0.02 (≈ 0.0536 µM) | 3.1 (≈ 8.3 µM) | 6.2 (≈ 16.6 µM) |  |  | 0.39 (≈ 1.04 µM) |  | 49.4 | 1.8 (≈ 4.82 µM) | > 8 | ED50 (Pseudomonas aeruginosa): 12.7 mg/kg; ED50 (Streptococcus pneumoniae [23]): > 8 mg/kg; ED50 [20]: 2.1 mg/kg; ED50 [21]: 1.3 mg/kg

Further compounds by falling MIC [4], results first:

MIC [1] [µg/mL] | MIC [2] [µg/mL] | MIC [3] [µg/mL] | MIC [4] [µg/mL] | MIC [5] [µg/mL] | ED50 [6] [mg/kg] | MIC [9, 24] [µg/mL] | MIC [10] [µg/mL] | MIC [11] [µg/mL] | ED50 [12] [mg/kg] | MIC [13] [µg/mL] | MIC [14] [µg/mL] | MIC [15] [µg/mL] | MIC (Enterococcus faecalis) [µg/mL] | MIC (Enterococcus faecium) [µg/mL] | MIC (Streptococcus pyogenes; [25]) [µg/mL] | SMILES | ED50 (Streptococcus pneumoniae [7]) [mg/kg] | ED50 (Streptococcus pneumoniae [8]) [mg/kg] | CC50 [16] [µg/mL] | ED50 [22] [mg/kg] | other results
0.1 (≈ 0.289 µM) | 0.1 (≈ 0.289 µM) | 0.05 (≈ 0.144 µM) | 0.39 (≈ 1.13 µM) | 0.005 (≈ 0.0144 µM) | 5.3 | 3.1 (≈ 8.95 µM) | 0.02 (≈ 0.0577 µM) | 0.005 (≈ 0.0144 µM) | 1.5 | 0.01 (≈ 0.0289 µM) | 0.39 (≈ 1.13 µM) | 0.39 (≈ 1.13 µM) |  |  |  | Cc1c(N2CC[C@H](O)C2)c(F)cn2c(=O)c(C(=O)O)cc(C3CC3)c12 | > 2 | > 10 |  |  | 
 |  |  | 0.2 (≈ 0.519 µM) |  |  | 3.1 (≈ 8.04 µM) |  |  |  |  |  |  |  |  |  | Cc1c(N2C[C@@H]3CCCN[C@@H]3C2)c(F)cn2c(=O)c(C(=O)O)cc(C3CC3)c12 (stereo in doubt; (S,S)45n) |  | 3.6 |  | > 8 | ED50 (Streptococcus pneumoniae [23]; [26]): 2.2 mg/kg; MIC (Streptococcus pyogenes): 0.05 µg/mL (≈ 0.13 µM)
0.002 (≈ 0.00556 µM) | 0.01 (≈ 0.0278 µM) | 0.01 (≈ 0.0278 µM) | 0.1 (≈ 0.278 µM) | 0.002 (≈ 0.00556 µM) |  | 1.56 (≈ 4.34 µM) | 0.005 (≈ 0.0139 µM) | 0.002 (≈ 0.00556 µM) |  | 0.005 (≈ 0.0139 µM) | 0.39 (≈ 1.09 µM) | 0.39 (≈ 1.09 µM) | 0.015 (≈ 0.0417 µM) | 0.03 (≈ 0.0835 µM) | 0.002 (≈ 0.00556 µM) | Cc1c(N2CCC(CN)C2)c(F)cn2c(=O)c(C(=O)O)cc(C3CC3)c12 (stereo not given) |  |  | 0.05 (≈ 0.139 µM) |  | 
0.02 (≈ 0.0579 µM) | 0.005 (≈ 0.0145 µM) | 0.02 (≈ 0.0579 µM) | 0.05 (≈ 0.145 µM) | 0.01 (≈ 0.029 µM) | 3.4 | 0.78 (≈ 2.26 µM) | 0.002 (≈ 0.00579 µM) | 0.01 (≈ 0.029 µM) | 0.6 | 0.005 (≈ 0.0145 µM) | 0.2 (≈ 0.579 µM) | 0.78 (≈ 2.26 µM) | 0.03 (≈ 0.0869 µM) | 0.25 (≈ 0.724 µM) | 0.02 (≈ 0.0579 µM) | Cc1c(N2CC[C@H](N)C2)c(F)cn2c(=O)c(C(=O)O)cc(C3CC3)c12 [ABT-719] | 1.6 |  | 0.03 (≈ 0.0869 µM) | 1.9 | ED50 (Pseudomonas aeruginosa): 14.5 mg/kg; half-life (in vivo [17]): 1.2 h; bioavailability (in vivo [18]): 32%; Cmax [19]: 270 ng/mL; ED50 (Streptococcus pneumoniae [8]; [26]): 5.3 mg/kg; ED50 [20]: 0.6 mg/kg; ED50 [21]: 0.1 mg/kg
0.02 (≈ 0.0579 µM) | 0.005 (≈ 0.0145 µM) | 0.02 (≈ 0.0579 µM) | 0.05 (≈ 0.145 µM) | 0.01 (≈ 0.029 µM) | 4.1 | 0.78 (≈ 2.26 µM) | 0.002 (≈ 0.00579 µM) | 0.01 (≈ 0.029 µM) | 1 | 0.002 (≈ 0.00579 µM) | 0.2 (≈ 0.579 µM) | 1.56 (≈ 4.52 µM) |  |  | 0.02 (≈ 0.0579 µM) | Cc1c(N2CCC(N)C2)c(F)cn2c(=O)c(C(=O)O)cc(C3CC3)c12 (stereo not given) | 6.2 |  | 0.05 (≈ 0.145 µM) | 0.5 | ED50 (Pseudomonas aeruginosa): 4.6 mg/kg; ED50 (Streptococcus pneumoniae [8]; [26]): 12.5 mg/kg; ED50 [20]: < 0.3 mg/kg; ED50 [21]: 0.4 mg/kg
